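Dose response: 5 concentrations. Exposure: 48 h. Format: 96-well plates. Endpoint: linear interpolation; highest concentration if not reached. The concentration for 50% growth inhibition is given as GI50. TGI marks complete inhibition of growth.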
Columns and labels:
Experiment in all cases: growth of human tumour cells (NCI), 48 h
[1] = system: OVCAR-8 ovarian
[2] = system: KM12 colon
[3] = system: SF-295 CNS
[4] = system: DU-145 prostate
[5] = system: SK-OV-3 ovarian
[6] = system: UACC-62 melanoma
[7] = system: CAKI-1 renal
[8] = system: NCI/ADR-RES ovarian
[9] = system: SNB-75 CNS
[10] = system: EKVX NSCLC
[11] = system: BT-549 breast
[12] = system: NCI-H23 lung
[13] = system: NCI-H460 lung
[14] = system: OVCAR-4 ovarian
[15] = system: HOP-62 NSCLC
[16] = system: CCRF-CEM leukemia
[17] = system: A498 renal
[18] = system: HT29 colon
[19] = system: TK-10 renal
[20] = system: U251 CNS
[21] = system: NCI-H522 lung
[22] = system: SK-MEL-28 melanoma
[23] = system: OVCAR-5 ovarian
[24] = system: LOX IMVI melanoma
[25] = system: SF-268 CNS
[26] = system: IGROV1 ovarian
[27] = system: NCI-H226 lung
[28] = system: MDA-MB-231 breast
[29] = system: SW-620 colon
[30] = system: HOP-92 NSCLC
[31] = system: HL-60(TB) leukemia
[32] = system: M14 melanoma
[33] = system: T-47D breast
[34] = system: HCT-116 colon
[35] = system: UO-31 renal
[36] = system: HS 578T breast
[37] = system: SR leukemia
[38] = system: SNB-19 CNS
[39] = system: SF-539 CNS
[40] = system: MDA-MB-468 breast
[41] = system: UACC-257 melanoma
[42] = system: COLO 205 colon
[43] = system: MCF7 breast
[44] = system: HCT-15 colon
[45] = system: RXF 393 renal
[46] = system: MOLT-4 leukemia
[47] = system: MALME-3M melanoma
[48] = system: A549 NSCLC
[49] = system: SK-MEL-5 melanoma
[50] = system: OVCAR-3 ovarian
[51] = system: SK-MEL-2 melanoma
[52] = system: 786-0 renal
[53] = system: MDA-MB-435
[54] = system: ACHN renal
[55] = system: HCC-2998 colon
[56] = system: K-562 leukemia
[57] = system: SN12C renal
[58] = system: PC-3 prostate

O=C(NCCCCC(c1ccc(F)cc1)c1ccc(F)cc1)Nc1ccc([N+](=O)[O-])c(C(F)(F)F)c1
GI50 [1]: 3.24 µM | TGI [1]: 16 µM | GI50 [2]: 2.07 µM | TGI [2]: 7.77 µM | GI50 [3]: 0.972 µM | TGI [3]: 3.73 µM | GI50 [4]: 3.53 µM | TGI [4]: 15.7 µM | GI50 [5]: 2.26 µM | TGI [5]: 6.05 µM | GI50 [6]: 1.33 µM | TGI [6]: 2.84 µM | GI50 [7]: 2.07 µM | TGI [7]: 6.5 µM | GI50 [8]: 2.36 µM | TGI [8]: 8.68 µM | GI50 [9]: 1.65 µM | TGI [9]: 7.64 µM | GI50 [10]: 2.3 µM | TGI [10]: 8.53 µM | GI50 [11]: 1.86 µM | TGI [11]: 4.23 µM | GI50 [12]: 2.27 µM | TGI [12]: 8.51 µM | GI50 [13]: 1.61 µM | TGI [13]: 5.54 µM | GI50 [14]: 2.81 µM | TGI [14]: 15.8 µM | GI50 [15]: 1.99 µM | TGI [15]: 4.62 µM | GI50 [16]: 0.674 µM | TGI [16]: 8.27 µM | GI50 [17]: 1.84 µM | TGI [17]: 5.51 µM | GI50 [18]: 3.22 µM | TGI [18]: 13.4 µM | GI50 [19]: 2.94 µM | TGI [19]: 10.9 µM | GI50 [20]: 2.2 µM | TGI [20]: 5.98 µM | GI50 [21]: 1.74 µM | TGI [21]: 5.17 µM | GI50 [22]: 3.03 µM | TGI [22]: 11.5 µM | GI50 [23]: 2.28 µM | TGI [23]: 7.89 µM | GI50 [24]: 1.69 µM | TGI [24]: 3.37 µM | GI50 [25]: 2.92 µM | TGI [25]: 12.4 µM | GI50 [26]: 2.71 µM | TGI [26]: 12.5 µM | GI50 [27]: 2.16 µM | TGI [27]: 6.55 µM | GI50 [28]: 1.82 µM | TGI [28]: 3.72 µM | GI50 [29]: 2.26 µM | TGI [29]: 10.9 µM | GI50 [30]: 1.03 µM | TGI [30]: 5.11 µM | GI50 [31]: 3.19 µM | TGI [31]: > 100 µM | GI50 [32]: 2.08 µM | TGI [32]: 6.63 µM | GI50 [33]: 1.85 µM | TGI [33]: 6.93 µM | GI50 [34]: 0.521 µM | TGI [34]: 2.81 µM | GI50 [35]: 1.82 µM | TGI [35]: 7.43 µM | GI50 [36]: 2.22 µM | TGI [36]: 6.22 µM | GI50 [37]: 2.97 µM | TGI [37]: > 100 µM | GI50 [38]: 2.91 µM | TGI [38]: 16.1 µM | GI50 [39]: 1.92 µM | TGI [39]: 4.01 µM | GI50 [40]: 0.559 µM | TGI [40]: 3.08 µM | GI50 [41]: 2.48 µM | TGI [41]: 7.97 µM | GI50 [42]: 1.73 µM | TGI [42]: 3.24 µM | GI50 [43]: 2.14 µM | TGI [43]: 10.1 µM | GI50 [44]: 1.8 µM | TGI [44]: 6.63 µM | GI50 [45]: 2.23 µM | TGI [45]: 6.25 µM | GI50 [46]: 2.81 µM | TGI [46]: > 100 µM | GI50 [47]: 1.84 µM | TGI [47]: 4.64 µM | GI50 [48]: 3.19 µM | TGI [48]: 12.6 µM | GI50 [49]: 1.59 µM | TGI [49]: 2.97 µM | GI50 [50]: 1.52 µM | TGI [50]: 5.31 µM | GI50 [51]: 1.92 µM | TGI [51]: 4.07 µM | GI50 [52]: 2.26 µM | TGI [52]: 8.86 µM | GI50 [53]: 2.15 µM | TGI [53]: 7.58 µM | GI50 [54]: 1.63 µM | TGI [54]: 6.81 µM | GI50 [55]: 2.61 µM | TGI [55]: 11.5 µM | GI50 [56]: 0.561 µM | TGI [56]: > 100 µM | GI50 [57]: 1.98 µM | TGI [57]: 6.52 µM | GI50 [58]: 0.415 µM | TGI [58]: 8.72 µM

Source: PubChem BioAssay (NCI)
